Measurements reported in patent US9993494B2, “Compositions and methods for treating fibrotic disease” (eFFECTOR Therapeutics, Inc., priority 2014, dated 2018).

Tested on: normal human lung fibroblasts
Assay: Ribosomal profiling: translational efficiency in TGFβ-treated fibroblasts
Type: cell-based
Details: TGFβ-treated fibroblasts
How it was run: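 Cells lysed on ice after a cold PBS wash containing cycloheximide. Ribosome-protected fragments and total mRNA were prepared with the ARTseq kit and sequenced by RNA-Seq. Reads were trimmed, mapped to the human genome and counted uniquely over coding regions per gene, with low-count genes excluded before differential translational-efficiency analysis.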

Cc1cc(C2CCCCC2)n(O)c(=O)c1.NCCO [CPX, ciclopirox oloamine]
− (− = <0.9): renormalizing the translational profile of DNASE1L1 (ENSG00000013563) | renormalizing the translational profile of KITLG (ENSG00000049130) | renormalizing the translational profile of ADAMTS6 (ENSG00000049192) | renormalizing the translational profile of LETMD1 (ENSG00000050426) | renormalizing the translational profile of PLEKHA5 (ENSG00000052126) | renormalizing the translational profile of EIF4B (ENSG00000063046) | renormalizing the translational profile of RPL18 (ENSG00000063177) | renormalizing the translational profile of HIPK2 (ENSG00000064393) | renormalizing the translational profile of ASPM (ENSG00000066279) | renormalizing the translational profile of RASSF1 (ENSG00000068028) | renormalizing the translational profile of PABPC1 (ENSG00000070756) | renormalizing the translational profile of RPL31 (ENSG00000071082) | renormalizing the translational profile of PLD1 (ENSG00000075651) | renormalizing the translational profile of EDN1 (ENSG00000078401) | renormalizing the translational profile of AURKA (ENSG00000087586) | renormalizing the translational profile of EPB41L1 (ENSG00000088367) | renormalizing the translational profile of RPL6 (ENSG00000089009) | renormalizing the translational profile of KDM2B (ENSG00000089094) | renormalizing the translational profile of RPLP0 (ENSG00000089157) | renormalizing the translational profile of IGBP1 (ENSG00000089289) | renormalizing the translational profile of IRAK3 (ENSG00000090376) | renormalizing the translational profile of PABPC4 (ENSG00000090621) | renormalizing the translational profile of FMO2 (ENSG00000094963) | renormalizing the translational profile of ACOT7 (ENSG00000097021) | renormalizing the translational profile of ATP5D (ENSG00000099624) | renormalizing the translational profile of LGALS1 (ENSG00000100097) | renormalizing the translational profile of EIF3L (ENSG00000100129) | renormalizing the translational profile of RPL3 (ENSG00000100316) | renormalizing the translational profile of CEP192 (ENSG00000101639) | renormalizing the translational profile of AMMECR1 (ENSG00000101935) | renormalizing the translational profile of PLP2 (ENSG00000102007) | renormalizing the translational profile of EIF3E (ENSG00000104408) | renormalizing the translational profile of EEF1D (ENSG00000104529) | renormalizing the translational profile of C19orf53 (ENSG00000104979) | renormalizing the translational profile of RAB3D (ENSG00000105514) | renormalizing the translational profile of RPL18A (ENSG00000105640) | renormalizing the translational profile of COMP (ENSG00000105664) | renormalizing the translational profile of GLCCI1 (ENSG00000106415) | renormalizing the translational profile of CORO2A (ENSG00000106789) | renormalizing the translational profile of RPL28 (ENSG00000108107) | renormalizing the translational profile of RPL19 (ENSG00000108298) | renormalizing the translational profile of RASD1 (ENSG00000108551) | renormalizing the translational profile of NAT9 (ENSG00000109065) | renormalizing the translational profile of RPL34 (ENSG00000109475) | renormalizing the translational profile of CRYAB (ENSG00000109846) | renormalizing the translational profile of GAPDH (ENSG00000111640) | renormalizing the translational profile of C12orf57 (ENSG00000111678) | renormalizing the translational profile of HBEGF (ENSG00000113070) | renormalizing the translational profile of RPL24 (ENSG00000114391) | renormalizing the translational profile of EEF1B2 (ENSG00000114942) | renormalizing the translational profile of IFIH1 (ENSG00000115267) | renormalizing the translational profile of DPH5 (ENSG00000117543) | renormalizing the translational profile of PPL (ENSG00000118898) | renormalizing the translational profile of LIAS (ENSG00000121897) | renormalizing the translational profile of GPSM2 (ENSG00000121957) | renormalizing the translational profile of RPL21 (ENSG00000122026) | renormalizing the translational profile of RPL5 (ENSG00000122406) | renormalizing the translational profile of INHBA (ENSG00000122641) | renormalizing the translational profile of CIT (ENSG00000122966) | renormalizing the translational profile of RPL23 (ENSG00000125691) | renormalizing the translational profile of NECAB3 (ENSG00000125967) | renormalizing the translational profile of COX7C (ENSG00000127184) | renormalizing the translational profile of LIF (ENSG00000128342) | renormalizing the translational profile of MTUS1 (ENSG00000129422) | renormalizing the translational profile of ARHGEF6 (ENSG00000129675) | renormalizing the translational profile of RPL36 (ENSG00000130255) | renormalizing the translational profile of GDF15 (ENSG00000130513) | renormalizing the translational profile of ASS1 (ENSG00000130707) | renormalizing the translational profile of EIF2S3 (ENSG00000130741) | renormalizing the translational profile of RPL27 (ENSG00000131469) | renormalizing the translational profile of MATN3 (ENSG00000132031) | renormalizing the translational profile of PPARG (ENSG00000132170) | renormalizing the translational profile of KDM6B (ENSG00000132510) | renormalizing the translational profile of RARRES3 (ENSG00000133321) | renormalizing the translational profile of ATP5G2 (ENSG00000135390) | renormalizing the translational profile of HNRNPA1 (ENSG00000135486) | renormalizing the translational profile of IL6 (ENSG00000136244) | renormalizing the translational profile of RPL35 (ENSG00000136942) | renormalizing the translational profile of NOV (ENSG00000136999) | renormalizing the translational profile of IER3 (ENSG00000137331) | renormalizing the translational profile of DDX60 (ENSG00000137628) | renormalizing the translational profile of RPLP1 (ENSG00000137818) | renormalizing the translational profile of AOX1 (ENSG00000138356) | renormalizing the translational profile of FGF5 (ENSG00000138675) | renormalizing the translational profile of PDE5A (ENSG00000138735) | renormalizing the translational profile of GAS2L3 (ENSG00000139354) | renormalizing the translational profile of DIAPH3 (ENSG00000139734) | renormalizing the translational profile of MYO19 (ENSG00000141140) | renormalizing the translational profile of RPL13A (ENSG00000142541) | renormalizing the translational profile of RPL11 (ENSG00000142676) | renormalizing the translational profile of RPL32 (ENSG00000144713) | renormalizing the translational profile of RPL37 (ENSG00000145592) | renormalizing the translational profile of BTF3 (ENSG00000145741) | renormalizing the translational profile of HIGD2A (ENSG00000146066) | renormalizing the translational profile of CREB5 (ENSG00000146592) | renormalizing the translational profile of DENND2A (ENSG00000146966) | renormalizing the translational profile of RPL10 (ENSG00000147403) | renormalizing the translational profile of EIF3H (ENSG00000147677) | renormalizing the translational profile of RPL7A (ENSG00000148303) | renormalizing the translational profile of EIF3M (ENSG00000149100) | renormalizing the translational profile of FAU (ENSG00000149806) | renormalizing the translational profile of CCDC102B (ENSG00000150636) | renormalizing the translational profile of HOMER1 (ENSG00000152413) | renormalizing the translational profile of PLEKHH2 (ENSG00000152527) | renormalizing the translational profile of ANKH (ENSG00000154122) | renormalizing the translational profile of ABCA6 (ENSG00000154262) | renormalizing the translational profile of OXA1L (ENSG00000155463) | renormalizing the translational profile of C9orf85 (ENSG00000155621) | renormalizing the translational profile of RPL30 (ENSG00000156482) | renormalizing the translational profile of EEF1A1 (ENSG00000156508) | renormalizing the translational profile of NRG1 (ENSG00000157168) | renormalizing the translational profile of ADAMTS4 (ENSG00000158859) | renormalizing the translational profile of RPL8 (ENSG00000161016) | renormalizing the translational profile of RPL26 (ENSG00000161970) | renormalizing the translational profile of RPL29 (ENSG00000162244) | renormalizing the translational profile of CAMK2N1 (ENSG00000162545) | renormalizing the translational profile of IGFBP7 (ENSG00000163453) | renormalizing the translational profile of RPL22L1 (ENSG00000163584)
+ (+ = 0.9 to 1.5): renormalizing the translational profile of GLTSCR2 (ENSG00000105373) | renormalizing the translational profile of GDF10 (ENSG00000107623) | renormalizing the translational profile of PLEKHG1 (ENSG00000120278) | renormalizing the translational profile of LAMP5 (ENSG00000125869) | renormalizing the translational profile of BIVM (ENSG00000134897) | renormalizing the translational profile of PAQR5 (ENSG00000137819) | renormalizing the translational profile of ACTA1 (ENSG00000143632) | renormalizing the translational profile of PLEKHA6 (ENSG00000143850) | renormalizing the translational profile of FRMD4A (ENSG00000151474) | renormalizing the translational profile of OBSCN (ENSG00000154358) | renormalizing the translational profile of ADAMTS5 (ENSG00000154736)
++ (++ = 1.5 to 2.0): renormalizing the translational profile of P2RX7 (ENSG00000089041) | renormalizing the translational profile of KRT7 (ENSG00000135480)
